Measurements from patent US20240174655A1, “INDAZOLE DERIVATIVES AS ANTAGONISTS OF THE MUSCARINIC ACETYLCHOLINE RECEPTOR M4” (Vanderbilt University, priority 2021, published 2024).

How the values were obtained:
Human M4 = molecular target: T1, Human M4 (Homo sapiens, UniProt P08173); test: mAChR M4 cell-based functional assay (calcium flux, EC80 acetylcholine response); details: M4/Gqi5/CHO-K1 cells; for remaining activity at 30 µM: % ACh maximum at 30 μM, read-out: Human M4 Emin (% ACh maximum at 30 μM)
T1 construct: expressed in transfected cells; host or cells: CHO-K1 (Chinese hamster ovary, ATCC), stably expressing M4 and Gqi5
T1 sequence (P08173 1-479): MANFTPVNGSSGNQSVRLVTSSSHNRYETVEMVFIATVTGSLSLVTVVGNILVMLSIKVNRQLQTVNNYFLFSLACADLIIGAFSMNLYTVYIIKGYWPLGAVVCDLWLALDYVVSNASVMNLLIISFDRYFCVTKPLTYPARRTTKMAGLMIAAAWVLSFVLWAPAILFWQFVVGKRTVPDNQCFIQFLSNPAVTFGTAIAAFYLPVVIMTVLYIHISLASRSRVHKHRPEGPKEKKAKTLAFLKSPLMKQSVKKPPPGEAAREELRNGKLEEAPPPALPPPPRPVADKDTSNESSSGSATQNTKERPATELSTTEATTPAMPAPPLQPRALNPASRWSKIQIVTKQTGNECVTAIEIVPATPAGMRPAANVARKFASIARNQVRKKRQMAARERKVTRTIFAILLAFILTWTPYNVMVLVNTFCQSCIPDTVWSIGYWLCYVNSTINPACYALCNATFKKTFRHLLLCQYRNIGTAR
Method: Human or rat M4 cDNA, along with the chimeric G protein Gqi5, were transfected into Chinese hamster ovary (CHO-K1) cells purchased from the American Type Culture Collection using Lipofectamine2000. M4/Gqi5/CHO cells were grown in Ham's F-12 medium containing […] heat-inactivated fetal bovine serum (FBS), 20 mM HEPES, 500 μg/mL G418 sulfate, and 200 μg/mL Hygromycin B.
For high throughput measurement of agonist-evoked increases in intracellular calcium, CHO-K1 cells stably expressing muscarinic receptors were plated in growth medium lacking G418 and hygromycin at 15,000 cells/20 μL/well in Greiner 384-well black-walled, tissue culture (TC)-treated, clear-bottom plates (VWR). Cells were incubated overnight at 37° C. and 500 CO2. […] Compound master plates were formatted in a 10 point concentration-response curve (CRC) format (1:3 dilutions) in 100% DMSO with a starting concentration of 10 or 1 mM using a BRAVO liquid handler (Agilent). Test compound CRCs were then transferred to daughter plates (240 nL) using the Echo acoustic plate reformatter (Labcyte, Sunnyvale, CA) and then diluted into assay buffer (40 μL) to a 2× stock using a Thermo Fisher Combi (Thermo Fisher Scientific, Waltham, MA).
Calcium flux was measured using the Functional Drug Screening System (FDSS) 6000 or 7000 (Hamamatsu Corporation, Tokyo, Japan) as an increase in the fluorescent static ratio. Compounds were applied to cells (20 μL, 2×) using the automated system of the FDSS at 2 seconds into the protocol and the data were collected at 1 Hz. […] Agonist activity was analyzed as a concentration-dependent increase in calcium mobilization upon compound addition. Positive allosteric modulator activity was analyzed as a concentration-dependent increase in the EC20 acetylcholine response. Antagonist activity was analyzed as a concentration-dependent decrease in the EC80 acetylcholine response; for the purposes of the tables herein, an IC50 (inhibitory concentration 50) was calculated as a concentration-dependent decrease of the response elicited by an EC80 concentration of acetylcholine. Concentration-response curves were generated using a four-parameter logistical equation in XLFit curve fitting software (IDBS, Bridgewater, NJ) for Excel (Microsoft, Redmond, WA) or Prism (GraphPad Software, Inc., San Diego, CA) or the Dotmatics software platform (Dotmatics, Bishop's Stortford, UK).
Compounds were synthesized as described above.

[1] = system: catalepsy induced by the DA receptor antagonist haloperidol; details: cited from earlier work

| remaining activity at 30 µM (Human M4) [%] | IC50 (Human M4; decrease of the response to an EC80 concentration of acetylcholine, read-out: Human M4 IC50) [nM] | SMILES | reduction of haloperidol-induced catalepsy ([1]; M4 KO mice) | reversal of haloperidol-induced catalepsy ([1]; WT mice) |
| --- | --- | --- | --- | --- |
| 3 | 0.76 | Cc1cc(N[C@H]2C[C@@H]3CN(CC4CCOCC4)C[C@@H]3C2)nnc1-c1ccc2nn(C)cc2c1C [compound 27, (3aR,5s,6aS)-N-(6-(2,4-dimethyl-2H-indazol-5-yl)-5-methylpyridazin-3-yl)-2-((tetrahydro-2H-pyran-4-yl)methyl)octahydrocyclopenta[c]pyrrol-5-amine] |  |  |
| 17 |  | [2H]C([2H])(C1CCOCC1)N1C[C@H]2C[C@H](Nc3nnc(-c4ccc5nn(C)cc5c4C)cc3C)C[C@H]2C1 [compound 28, (3aR,5s,6aS)-N-(6-(2,4-dimethyl-2H-indazol-5-yl)-4-methylpyridazin-3-yl)-2-((tetrahydro-2H-pyran-4-yl)methyl-d2)octahydrocyclopenta[c]pyrrol-5-amine] |  |  |
| 3 |  | Cc1c(-c2cc(C(F)F)c(N[C@H]3C[C@@H]4CN(CC5CCOCC5)C[C@@H]4C3)nn2)ccc2nn(C)cc12 [compound 29, (3aR,5s,6aS)-N-(4-(difluoromethyl)-6-(2,4-dimethyl-2H-indazol-5-yl)pyridazin-3-yl)-2-((tetrahydro-2H-pyran-4-yl)methyl)octahydrocyclopenta[c]pyrrol-5-amine] |  |  |
| 2 |  | Cc1c(-c2cc(C(F)(F)F)c(N[C@H]3C[C@@H]4CN(CC5CCOCC5)C[C@@H]4C3)nn2)ccc2nn(C)cc12 [compound 30, (3aR,5s,6aS)-N-(6-(2,4-dimethyl-2H-indazol-5-yl)-4-(trifluoromethyl)-pyridazin-3-yl)-2-((tetrahydro-2H-pyran-4-yl)methyl)-octahydrocyclopenta[c]pyrrol-5-amine] |  |  |
|  |  | CN1[C@@H]2C[C@@H](OC(=O)[C@H](CO)c3ccccc3)C[C@H]1[C@@H]1O[C@@H]12 [scopolamine] | ineffective | completely reversed |
